Assay results as given in US20230131899A1, “INHIBITORS OF MICROBIALLY INDUCED AMYLOID” (Axial Therapeutics, Inc., priority 2020, published 2023).
Where two headings read alike, the source gives them in different places.

System: CsgA gene expression (csgBAC promoter-GFP reporter) in E. coli UTI89
Experiment: In vitro live cell fluorescent reporter assay of CsgA transcription (Reporter Assay)
Type: cell-based
Conditions: Escherichia coli
Description: In vitro live cell fluorescent reporter assay to determine effects of compounds on CsgA transcription. To assess the impact of compounds on CsgA gene expression, a live cell assay was performed using an engineered strain of E. coli UTI89 with a fluorescent CsgA gene expression reporter driven by the csgBAC promoter. In the reporter strain, a gene encoding Green Fluorescent Protein (GFP) was placed immediately downstream of the full intergenic region between csgDEF and csgBAC, containing the csgBAC promoter and other transcriptional regulatory elements, and inserted in single copy into the E. coli UTI89 chromosome, as described in Cegelski et. al., “Small-molecule inhibitors target Escherichia coli amyloid biogenesis and biofilm formation,” Nat. Chem. Bio., 25 Oct. 2009. With this construct, GFP expression in the reporter strain was under the same regulation as CsgA expression. The reporter strain was struck out on a YESCA agar plate (1 g/L yeast extract, 10 g/L casamino acids, 20 g/L Bacto Agar) and grown at about 27° C. for 2 days, or until single colonies were sufficiently large to pick. A single colony of the reporter strain was used to inoculate 5 mL of YESCA broth (1 g/L yeast extract, 10 g/L casamino acids), which was grown overnight at about 27° C. The inoculum was diluted 1:10 in YESCA broth and the optical density at 600 nm (OD600) was measured on a SpectraMax M2 or M5e (Molecular Devices, San Jose, Calif.) spectrophotometer in cuvettes. The culture was then further diluted to achieve a final OD600 of 0.003, which was confirmed by measurement of the OD600. Compounds were diluted in dimethyl sulfoxide (DMSO) and plated on black clear-bottomed tissue culture-treated 96-well plates with 1.5 μL/well for final test concentrations from 0.14-100 μM. All assay wells, including vehicle controls and positive controls for inhibition, included 1% DMSO final. Vehicle control wells consisted of DMSO and the reporter strain to assess the expression of the reporter strain in the assay in the absence of any compound. […] 148.5 μL culture at OD600 0.003 in YESCA broth was added to all wells for 150 μL final volume. Plates were incubated at 27° C. for 20 hours, then GFP fluorescence signal for each well was read on a Spectramax M2 or M5e plate reader with excitation at 485 nm, emission at 525 nm, and a cutoff at 515 nm. OD600 for each well was also measured on the Spectramax M2 or M5e plate reader. […] Background fluorescence was subtracted from all wells, then fluorescence signal for each well was normalized to the mean of the vehicle control wells. Normalized dose response curves were plotted for each compound, and compound inhibition of CsgA transcription was determined by assessing the curve-fit IC50, bottom, top, span (top-bottom), and Hill slope using GraphPad Prism software version 8.1.1 (GraphPad Software, San Diego, Calif.). An additional metric used to evaluate compounds was the concentration at which the curve reached 50% of the expression level of the vehicle control. This was written as a custom analysis in GraphPad Prism according to the formula X[50], or the X value at which Y=50, ie, the compound concentration at which fluorescence of the reporter strain was calculated to reach 50% of the vehicle control fluorescence. Separately from the fluorescence data, OD600 values were normalized to the mean of the vehicle control wells, and dose response curves were plotted for each compound. OD600 reduction of greater than 10% indicated compounds had some toxicity or negative impact on bacterial growth. […]

[1] = read-out: Reporter Assay Abs IC50 (activity range), median Abs IC50 in the CsgA reporter assay, class symbol
[2] = read-out: Reporter Assay Abs IC50 (μM), median Abs IC50 in the CsgA reporter assay, N/A = maximum expression reduction is <50% of control
[3] = read-out: Reporter Assay Abs IC50, activity range, class symbol

Row | Structure (SMILES) | IC50 [1] [µM] | IC50 [2] [µM] | IC50 [3] [µM]
1 | CN1CC(C(=O)O)n2c(c(-c3cccc(C(F)(F)F)c3)c(Cc3cccc4ccccc34)cc2=O)S1(=O)=O (racemic) [Compound 008, 2-methyl-8-(naphthalen-1-ylmethyl)-6-oxo-9-(3-(trifluoromethyl)phenyl)-3,4-dihydro-2H,6H-pyrido[1,2-e][1,2,5]thiadiazine-4-carboxylic acid 1,1-dioxide] | 1.3 to 4.5 | 4.3 | 
2 | CCCCN1CC(C(=O)O)n2c(c(-c3cccc(C(F)(F)F)c3)c(Cc3cccc4ccccc34)cc2=O)S1(=O)=O (racemic) [Compound 021, 2-butyl-8-(naphthalen-1-ylmethyl)-6-oxo-9-(3-(trifluoromethyl)phenyl)-3,4-dihydro-2H,6H-pyrido[1,2-e][1,2,5]thiadiazine-4-carboxylic acid 1,1-dioxide] | 1.3 to 4.5 | 2.6 | 
3 | O=C(O)c1c[nH]c2c(-c3cccc(C(F)(F)F)c3)c(Cc3cccc4ccccc34)cc(=O)n12 [Compound 110, 7-(naphthalen-1-ylmethyl)-5-oxo-8-(3-(trifluoromethyl)phenyl)-1,5-dihydroimidazo[1,2-a]pyridine-3-carboxylic acid] | > 10 | 13.7 | 
4 | COc1ccc(Cc2c(-c3cccc(C(F)(F)F)c3)c3n(c(=O)c2Cl)C(C(=O)O)CN3Cc2ccccc2)c2ccccc12 (stereo not shown) [Compound 219, 1-benzyl-6-chloro-7-((4-methoxynaphthalen-1-yl)methyl)-5-oxo-8-(3-(trifluoromethyl)phenyl)-1,2,3,5-tetrahydroimidazo[1,2-a]pyridine-3-carboxylic acid] |  | 0.8 | < 1.3
5 | COc1ccc(Cc2cc(=O)n3c(c2-c2cccc(C(F)(F)F)c2)N(Cc2ccccc2)CC3C(=O)O)c2ccccc12 (stereo not shown) [Compound 220, 1-benzyl-7-((4-methoxynaphthalen-1-yl)methyl)-5-oxo-8-(3-(trifluoromethyl)phenyl)-1,2,3,5-tetrahydroimidazo[1,2-a]pyridine-3-carboxylic acid] |  | 1.2 | < 1.3
6 | O=C(O)C1CN(Cc2ccccc2)c2c(-c3cccc(C(F)(F)F)c3)c(Cc3cncc4ccccc34)cc(=O)n21 (stereo not shown) [Compound 221, 1-benzyl-7-(isoquinolin-4-ylmethyl)-5-oxo-8-(3-(trifluoromethyl)phenyl)-1,2,3,5-tetrahydroimidazo[1,2-a]pyridine-3-carboxylic acid] |  | 6.7 | 4.6 to 10
7 | O=C(O)C1CN(Cc2ccccc2)c2c(-c3cccc(C(F)(F)F)c3)c(Cc3cccc4ncccc34)cc(=O)n21 (stereo not shown) [Compound 222, 1-benzyl-5-oxo-7-(quinolin-5-ylmethyl)-8-(3-(trifluoromethyl)phenyl)-1,2,3,5-tetrahydroimidazo[1,2-a]pyridine-3-carboxylic acid] |  | 31.8 | > 10
8 | O=C(O)C1CN(Cc2ccccc2)c2c(-c3cccc(C(F)(F)F)c3)c(Cc3cccc4cnccc34)cc(=O)n21 (stereo not shown) [Compound 223, 1-benzyl-7-(isoquinolin-5-ylmethyl)-5-oxo-8-(3-(trifluoromethyl)phenyl)-1,2,3,5-tetrahydroimidazo[1,2-a] pyridine-3-carboxylate] |  | 21.7 | > 10
9 | O=C(O)C1CN(Cc2ccccc2)c2c(-c3cccc(C(F)(F)F)c3)c(Cc3cccc4cccnc34)cc(=O)n21 (stereo not shown) [Compound 224, 1-benzyl-5-oxo-7-(quinolin-8-ylmethyl)-8-(3-(trifluoromethyl)phenyl)-1,2,3,5-tetrahydroimidazo[1,2-a]pyridine-3-carboxylic acid] |  | 9.7 | 4.6 to 10
10 | O=C(O)C1CN(Cc2ccccc2)c2c(-c3cccc(C(F)(F)F)c3)c(Cc3ccc(Cl)c4ccccc34)c(Cl)c(=O)n21 (stereo not shown) [Compound 225, 1-benzyl-6-chloro-7-((4-chloronaphthalen-1-yl)methyl)-5-oxo-8-(3-(trifluoromethyl)phenyl)-1,2,3,5-tetrahydroimidazo[1,2-a]pyridine-3-carboxylic acid] |  | 1.6 | 1.3 to 4.5
11 | CC(C)(C)c1cccc(Cc2cc(=O)n3c(c2-c2cccc(C(F)(F)F)c2)N(Cc2ccccc2)CC3C(=O)O)c1 (stereo not shown) [Compound 226, 1-benzyl-7-(3-(tert-butyl)benzyl)-5-oxo-8-(3-(trifluoromethyl)phenyl)-1,2,3,5-tetrahydroimidazo[1,2-a] pyridine-3-carboxylic acid] |  | 2.7 | 
12 | CC(C)(C)c1ccc(Cc2cc(=O)n3c(c2-c2cccc(C(F)(F)F)c2)N(Cc2ccccc2)CC3C(=O)O)cc1 (stereo not shown) [Compound 227, 1-benzyl-7-(4-(tert-butyl)benzyl)-5-oxo-8-(3-(trifluoromethyl)phenyl)-1,2,3,5-tetrahydroimidazo[1,2-a] pyridine-3-carboxylic acid] |  | 1.8 | 1.3 to 4.5
13 | O=C(O)C1CN(Cc2ccccc2)c2c(-c3cccc(C(F)(F)F)c3)c(CN3CCCc4ccccc43)cc(=O)n21 (stereo not shown) [Compound 228, 1-benzyl-7-((3,4-dihydroquinolin-1 (2H)-yl)methyl)-5-oxo-8-(3-(trifluoromethyl)phenyl)-1,2,3,5-tetrahydroimidazo[1,2-a]pyridine-3-carboxylic acid] |  | 3.9 | 1.3 to 4.5
14 | O=C(O)C1CN(Cc2ccccc2)c2c(-c3cccc(C(F)(F)F)c3)c(CN3CCC[C@@H](c4ccccc4)C3)c(Cl)c(=O)n21 (stereo partly drawn) [Compound 230, 1-benzyl-6-chloro-5-oxo-7-(((S)-3-phenylpiperidin-1-yl)methyl)-8-(3-(trifluoromethyl)phenyl)-1,2,3,5-tetrahydroimidazo[1,2-a]pyridine-3-carboxylic acid] |  | 1.2 | < 1.3
15 | O=C(O)C1CN(Cc2ccccc2)c2c(-c3cccc(C(F)(F)F)c3)c(CN3CCC[C@@H](c4ccccc4)C3)cc(=O)n21 (stereo partly drawn) [Compound 231, 1-benzyl-5-oxo-7-(((S)-3-phenylpiperidin-1-yl)methyl)-8-(3-(trifluoromethyl)phenyl)-1,2,3,5-tetrahydroimidazo[1,2-a]pyridine-3-carboxylic acid] |  | 3.4 | 1.3 to 4.5
16 | O=C(O)C1CN(Cc2ccccc2)c2c(-c3cccc(C(F)(F)F)c3)c(Cc3ccccc3)cc(=O)n21 (stereo not shown) [Compound 235, 1,7-dibenzyl-5-oxo-8-(3-(trifluoromethyl)phenyl)-1,2,3,5-tetrahydroimidazo[1,2-a]pyridine-3-carboxylic acid] |  | 2.7 | 1.3 to 4.5
17 | O=C(O)C1CN(Cc2ccccc2)c2c(-c3cccc(C(F)(F)F)c3)c(CCc3ccccc3)cc(=O)n21 (stereo not shown) [Compound 236, 1-benzyl-5-oxo-7-phenethyl-8-(3-(trifluoromethyl)phenyl)-1,2,3,5-tetrahydroimidazo[1,2-a]pyridine-3-carboxylic acid] |  | 1.7 | 1.3 to 4.5
18 | O=C(O)C1CN(Cc2ccccc2)c2c(-c3cccc(C(F)(F)F)c3)c(CN3CCC[C@H](c4ccccc4)C3)c(Cl)c(=O)n21 (stereo partly drawn) [Compound 237, 1-benzyl-6-chloro-5-oxo-7-(((R)-3-phenylpiperidin-1-yl)methyl)-8-(3-(trifluoromethyl)phenyl)-1,2,3,5-tetrahydroimidazo[1,2-a]pyridine-3-carboxylic acid] |  | 1.3 | 1.3 to 4.5
19 | O=C(O)C1CN(Cc2ccccc2)c2c(-c3cccc(C(F)(F)F)c3)c(CCc3ccccc3)c(Cl)c(=O)n21 (stereo not shown) [Compound 240, 1-benzyl-6-chloro-5-oxo-7-phenethyl-8-(3-(trifluoromethyl)phenyl)-1,2,3,5-tetrahydroimidazo[1,2-a]pyridine-3-carboxylic acid] |  | 1.4 | 1.3 to 4.5
